Measurements: US7109294B2, “Bacterial glycosyltransferase polypeptides involved in antibiotic resistance” (priority 2001, dated 2006)

Assays:
Type in all cases: cell-based, Pseudomonas aeruginosa
[1] = tested on: P. aeruginosa PA14 wild type biofilm grown cells
[2] = tested on: P. aeruginosa PA14 wild type planktonic cells; assay: microbe, parasite or virus in culture; conditions: for MBC: Pseudomonas aeruginosa, PA14, 24 h, read-out: MBC-P, MBC of planktonically grown cells
[3] = tested on: 45E7 mutant (PA1163 transposon insertion) biofilm grown cells
[4] = tested on: 45E7 mutant planktonic cells; assay: microbe, parasite or virus in culture; conditions: for MBC: Pseudomonas aeruginosa, read-out: MBC-P, MBC of planktonically grown cells
[5] = tested on: 30B1 mutant (PA1874 transposon insertion) biofilm grown cells
[6] = tested on: 30B1 mutant planktonic cells; assay: microbe, parasite or virus in culture; conditions: for MBC: Pseudomonas aeruginosa, read-out: MBC-P, MBC of planktonically grown cells
[7] = tested on: wild type colony biofilm
[8] = tested on: wild type flow cell biofilm

Molecule	MBC-B, MBC of biofilm grown cells [1] [µg/mL]	MBC [2] [µg/mL]	MBC of biofilm grown 45E7 lower compared to the wt [3] [fold]	MBC-B, MBC of biofilm grown cells [3] [µg/mL]	MBC [4] [µg/mL]	MBC-B, MBC of biofilm grown cells [5] [µg/mL]	MBC [6] [µg/mL]	decrease of planktonic MBC relative to the biofilm-grown bacteria [2] [fold]	drop of viability in colony biofilm [7] [fold]	live versus dead cells in Tb-treated biofilm (BacLight) [8]	MBC-P, MBC of planktonically grown cells [2] [µg/mL]	MBC-P, MBC of planktonically grown cells [4] [µg/mL]	MBC-P, MBC of planktonically grown cells [6] [µg/mL]
O=C(O)c1cn(C2CC2)c2cc(N3CCNCC3)c(F)cc2c1=O [Cip, ciprofloxacin]	50	4	8	6	4	12.5	4	–	–	–	–	–	–
NC[C@H]1O[C@H](O[C@H]2[C@H](O)[C@@H](O[C@H]3O[C@H](CO)[C@@H](O)[C@H](N)[C@H]3O)[C@H](N)C[C@@H]2N)[C@H](N)C[C@@H]1O [Tb, tobramycin]	400	8	16	25	8	100	8	50	~100	more live than dead cells	–	–	–
gentamycin [Gm]	500	–	8	60	–	250	–	–	–	–	40	40	40
